These results are taken from article PMC7381740 (Theranostics, 2020).

pKi: −log10 of the molar value. Entries after “also recorded” stand apart in the source; their conditions may differ. Read-outs that look alike come from different tables or passages of the source.

One data set has as its system neurons (NeuN). The data set can be described thus: NeuN immunohistochemistry after intrastriatal AMPA. The class given is in vivo, rat. The protocol: Animals were maintained normothermic (body temperature: 37.0 ± 0.4 °C) during the surgery through the use of a heating blanket (Homeothermic Blanket Control Unit, Harvard Apparatus Limited®, Edenbridge, Kent, UK). Twenty-four hours later, the rats were anesthetized again as described above and scanned with a 3T cryogen-free MRS 3000 scanner with a quadrature, rat head coil (MR Solutions, Guildford, UK), [35] to assess oedema (i.e. lesion size and location) immediately before the PET scan. Parameters for the T2-weighted RARE sequence were: repetition time = 4800 ms, base echo time = 17 ms, effective echo time = 68 ms, number of echoes = 8, bandwidth = 20 kHz, number of samples = 256, number of views = 240, number of averages = 1 with 25 slices of 1.06 mm, giving a final voxel size of 0.136 × 0.136 × 1.06 mm.
Immunohistochemistry was also carried out in rats that received intrastriatal AMPA to visualise NeuN (neuronal marker). Animals were culled by isoflurane overdose confirmed by cervical dislocation. The brains were collected, snap frozen using isopentane on dry ice and stored at -80 °C. Coronal brain sections (20 µm thick) were taken using a cryostat (Leica CM3050s, Leica Biosystems Nussloch GmbH, Germany) and stored at -80 °C. Sections were allowed to defrost and dry at room temperature for 20min and then fixed with 4% paraformaldehyde for 10 min before being washed (6 × 5 min) in phosphate buffered saline (PBS) and incubated for 30 min in 2% normal donkey serum and 0.1% Triton X-100 in PBS to permeabilise and block non-specific binding. Primary antibody incubation was carried out overnight at 4 °C with rabbit anti-NeuN (Abcam, ab177487, 1:500). Following incubation in primary antibody, PBS washes were repeated (3 × 10min) and incubation with the secondary antibody (Alexa Fluor 594nm Donkey anti-rabbit IgG 1:500) was carried out. Images of the lesioned striatum were collected on an Olympus BX51 upright microscope using a 10×/0.30 UPlanFLN objectives and captured using a Retiga 6000 Color and R6 camera through QCapture Pro 7 and Ocular Software (QImaging Inc.). Specific band pass filter sets were used to prevent bleed through from one channel to the next. NeuN staining was quantified using ImageJ (1.52n) [51]-[53] using 5 snapshots for the caudate putamen, 3 snapshots for the globus pallidus and 2 snapshots for the substantia nigra for each side of the brain (ipsi- and contralateral). Both the total number of neurons averaged over the snapshots and the percentage of stained areas were measured.
For NeuN staining analysis and ^18F-IAM6067 autoradiography in the AMPA model, percentage stained area, cell counts and ^18F-IAM6067 were analysed using paired t-tests (ipsi- vs contralateral) for the caudate-putamen, globus pallidus and substantia nigra.

In data set [1] the target is S1R (Rattus norvegicus, UniProt Q9R0C9). As to the kind of experiment: PET pre-saturation (blocking) studies of ^18F-IAM6067 uptake. The class given is in vivo. As to conditions: blocker 1 mg/kg i.v. 20-30 min before scan. As for the experimental part: PET data were expressed as SUV.
As the experiments with CM398 were performed later, scans without and with pre-treatment with CM398 were performed in the same animals and therefore were analysed using 2 way ANOVA with repeated measures for ROI and treatment. ANOVA were followed by a Sidak's post-hoc test.

For a further data set, the target named is σ1 receptor (S1R). As to conditions: cited from earlier work.
The next data set has as its system sigma binding sites. Also on record: method as in PMID 8221112. As to conditions: hippocampus of AD patients vs controls, autoradiography; cited from earlier work.
For data set [2], the system named is S1R. As to conditions: baboon pre-treated with haloperidol 1 mg/kg i.v.; cited from earlier work.
The mark [3] stands for this setting: globus pallidus, 24 h after intrastriatal AMPA 7.5 nmol, ipsi- vs contralateral.

S1R (Rattus norvegicus, UniProt Q9R0C9), sequence (Q9R0C9 whole entry): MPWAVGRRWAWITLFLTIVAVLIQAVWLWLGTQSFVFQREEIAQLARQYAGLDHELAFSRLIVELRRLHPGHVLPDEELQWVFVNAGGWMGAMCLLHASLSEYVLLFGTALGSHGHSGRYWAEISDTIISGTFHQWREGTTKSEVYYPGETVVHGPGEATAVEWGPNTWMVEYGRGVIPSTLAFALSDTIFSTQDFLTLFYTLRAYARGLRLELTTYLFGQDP

Regarding `Cc1onc(O)c1CC(N)C(=O)O` (stereo not drawn) [AMPA, α-amino-3-hydroxy-5-methyl-4-isoxazolepropionic acid], in the data set on neurons (NeuN) (caudate-putamen, 24 h after intrastriatal AMPA 7.5 nmol, ipsi- vs contralateral), the “loss of neurons, NeuN % stained area” value was -81 ± 3%. Further, in the data set on neurons (NeuN) (setting [3]), the “loss of neurons, NeuN % stained area” value is reported as -71 ± 8% and the “loss of neurons, NeuN cell number” value is -56 ± 17%. Besides, the “loss of neurons in the striatum (NeuN immunostaining)” value in the data set with neurons (NeuN) (striatum) is recorded as 70-80%.

Consider `CN(C)CCN(C)CCc1ccc(Cl)c(Cl)c1` [BD1047], for which, on S1R [1], the “decrease (blocking) of ^18F-IAM6067 uptake in all areas of the brain” value is on record as 79-90% and the “effect of pre-saturation on ^18F-IAM6067 uptake vs baseline (in words)” value (from here on “effect … vs baseline (in words)”) is “full blocking”.

With (S)-^18F-fluspidine, the pKi on σ1 receptor (S1R) (enantiomers) was 8.64.

As to `FCCC1OC2(CCN(Cc3ccccc3)CC2)c2ccccc21` (stereo not drawn) [^18F-fluspidine], on σ1 receptor (S1R), the pKi was 9.23.

Consider `O=c1sc2cc(CCCF)ccc2n1CCN1CCCCCC1` [^18F-FTC-146], for which the pKi at σ1 receptor (S1R) is 11.60.

Consider `COc1cc2c(cc1OC)CN(CCCCn1c(=O)n(C)c3ccccc31)CC2` [CM398], for which, on S1R [1], the “effect … vs baseline (in words)” value is on record as “no significant blockade; also recorded: did not reveal any significant difference; also recorded: did not result in a significant reduction”.

For the compound `Cn1ccc2cc3c(cc21)CCN3C(=O)Nc1cccnc1` [SB206553], the “effect … vs baseline (in words)” value on S1R [1] is “no significant blockade; also recorded: did not reveal any significant difference; also recorded: no significant difference”.

For `FCC[C@H]1OC2(CCN(Cc3ccccc3)CC2)c2ccccc21` [(R)-^18F-fluspidine], the pKi on σ1 receptor (S1R) (enantiomers) was 9.28.

On to `Cc1ccccc1NC(=N)Nc1ccccc1C` [^3H-DTG], for which, in the data set on sigma binding sites, the decrease in binding is 26%.

On to `O=C(CCCN1CCC(O)(c2ccc(Cl)cc2)CC1)c1ccc(F)cc1` [haloperidol], for which, in the data set on S1R [2], the “displacement in specific receptor binding of ^18F-IAM6067 in all areas of the brain” value was 80%.

Consider `COc1ccc(CCN2CCN(CCCc3ccccc3)CC2)cc1OC` [^11C-SA4503], for which the pKi on σ1 receptor (S1R) is 8.36.

As a reminder, the pKi is the negative decadic logarithm of the Ki, by convention in mol/L.
